Earlier results as cited in paper PMC8216436, “Molecular docking and statistical optimization of taurocholate-stabilized galactose anchored bilosomes for the enhancement of sofosbuvir absorption and hepatic relative targeting efficiency” (Drug Delivery, 2020).

Legend:
[1] = 2017
[2] = system: P-glycoprotein (P-gp); design: method as in Shen et al., 2019; conditions: efflux from GIT membrane cells and hepatocytes; ref Shen et al., 2019
[3] = oral, ref Rodríguez-Torres, 2013, Kirby et al., 2015, Cuenca-Lopez et al.

In the case of CC(C)OC(=O)[C@H](C)N[P@](=O)(OC[C@H]1O[C@@H](n2ccc(=O)[nH]c2=O)[C@](C)(F)[C@@H]1O)Oc1ccccc1 [Sofosbuvir], the “administered dose absorbed through the portal circulation” value [1, 3] is listed as 36.4%, the “hepatic availability of the administered dose” value [1, 3] is listed as 26.94% and the hepatic extraction [1, 3] is listed as 74%. The volume of distribution ([1]; ref Bhatia et al., 2014, Reznik & Ashby) was 127 L, the “P-glycoprotein (P-gp) substrate” value [2] was “substrate” and the “biopharmaceutics classification system class” value (high solubility and low permeability, ref Kirby et al., 2015) was “class III”. For the same molecule, the partition coefficient (ref Amidon et al., 1995) was “about 1.6”, the solubility (ref Amidon et al., 1995) was at least 2000 µg/mL and the pKa (weak acid, ref Amidon et al., 1995) was 9.6.
